{
  "source": "ChEMBL document CHEMBL5223098",
  "about": "“Prodrugs of pyrophosphates and bisphosphonates: disguising phosphorus oxyanions” (RSC Med Chem, 2022)",
  "key": {"[1]": {"test": "Apparent partition coefficient, logPapp of the compound in pH 7.4 phosphate buffer incubated for 30 mins by HPLC analysis", "type": "physicochemical"}, "[2]": {"test": "Half-life of the compound in 80% human serum by HPLC analysis", "type": "ADME, cell-free", "details": "80% serum"}, "[3]": {"test": "Half-life of the compound in pH 7.4 phosphate buffer by HPLC analysis", "type": "physicochemical"}, "[4]": {"test": "Half-life of the compound in pH 2.0 phosphate buffer by HPLC analysis", "type": "physicochemical"}, "[5]": {"test": "1-Octanol/phosphate buffer apparent partition coefficient, logPapp of the compound at pH 7.4 by shake-flask method", "type": "physicochemical"}, "[6]": {"test": "Half-life of the compound in 10% rabbit liver homogenate by HPLC analysis", "type": "ADME, tissue-based, Oryctolagus cuniculus", "details": "10% liver homogenate"}, "[7]": {"test": "Half-life of the compound in pH 5.0 phosphate buffer by HPLC analysis", "type": "physicochemical"}, "[8]": {"test": "Octanol-water partition coefficient, logP of the compound by shake-flask method", "type": "physicochemical"}, "[9]": {"test": "Apparent partition coefficient, logPapp of the compound by HPLC analysis", "type": "physicochemical", "details": "octanol/water"}, "[10]": {"test": "Half-life of the compound in human serum by HPLC analysis", "type": "ADME, cell-free"}, "[11]": {"test": "1-Octanol/phosphate buffer apparent partition coefficient, logPapp of the compound by shake-flask method", "type": "physicochemical"}, "[12]": {"test": "Half-life of the compound in pH 7.3 PBS buffer", "type": "physicochemical"}, "[13]": {"test": "Half-life of the compound in human CEM/0 cell extract at pH 6.9", "type": "ADME, CCRF-CEM"}, "[14]": {"test": "Half life of the compound in pH 7.0 TEAA buffer", "type": "physicochemical"}, "[15]": {"test": "Half life of the compound in RPMI medium", "type": "physicochemical"}, "[16]": {"test_system": "Human immunodeficiency virus 2", "test": "Antiviral activity against HIV2 infected in human CEM-TK(-) cells assessed as inhibition of viral replication incubated for 4 to 5 days by microscopic analysis", "type": "functional, organism-based", "details": "Human immunodeficiency virus 2, CEM-TK(-)"}, "[17]": {"test_system": "Human immunodeficiency virus 2", "test": "Potency index, ratio of d4T EC50 to test compound EC50 for antiviral activity against HIV2 infected in human CEM-TK(-) cells assessed as inhibition of viral replication incubated for 4 to 5 days by microscopic analysis", "type": "functional", "details": "time 4-5 day"}, "[18]": {"test": "Time for quantitative release of etidronate in 10% rabbit liver homogenate", "details": "10% liver homogenate"}},
  "data": [
    {"smiles": "CC(C)(C)C(=O)OP(=O)(O)C(Cl)(Cl)P(=O)(O)OC(=O)C(C)(C)C", "values": [
      {"measurement": "logD at 0.5 h", "setting": "[1]", "result": -2.3},
      {"measurement": "half-life", "setting": "[2]", "result": 3.3, "unit": "h"}
    ]},
    {"smiles": "CC(=O)OP(=O)(O)C(Cl)(Cl)P(=O)(O)OC(C)=O", "values": [
      {"measurement": "half-life", "setting": "[3]", "result": 15.2, "unit": "h"},
      {"measurement": "logD at 0.5 h", "setting": "[1]", "result": -2.3},
      {"measurement": "half-life", "setting": "[4]", "result": 0.75, "unit": "h"}
    ]},
    {"smiles": "O=C(OP(=O)(O)C(Cl)(Cl)P(=O)(O)OC(=O)c1ccccc1)c1ccccc1", "values": [
      {"measurement": "logD at 0.5 h", "setting": "[1]", "result": -2.3}
    ]},
    {"smiles": "CCCC(=O)OP(=O)(O)C(Cl)(Cl)P(=O)(O)OC(=O)CCC", "values": [
      {"measurement": "half-life", "setting": "[3]", "result": 15.2, "unit": "h"},
      {"measurement": "logD at 0.5 h", "setting": "[1]", "result": -2.3},
      {"measurement": "half-life", "setting": "[4]", "result": 0.75, "unit": "h"}
    ]},
    {"smiles": "CC(C)(C)C(=O)OCOP(=O)(O)C(Cl)(Cl)P(=O)(O)OCOC(=O)C(C)(C)C", "values": [
      {"measurement": "logD", "setting": "[5]", "result": -2.1},
      {"measurement": "half-life", "setting": "[6]", "result": 0.233, "unit": "h"}
    ]},
    {"smiles": "CC(C)(C)C(=O)OCOP(=O)(OCOC(=O)C(C)(C)C)C(Cl)(Cl)P(=O)(OCOC(=O)C(C)(C)C)OCOC(=O)C(C)(C)C", "values": [
      {"measurement": "logD", "setting": "[5]", "result": 7.4}
    ]},
    {"smiles": "CC(C)(C)C(=O)OCOP(=O)(O)C(Cl)(Cl)P(=O)(OCOC(=O)C(C)(C)C)OCOC(=O)C(C)(C)C", "values": [
      {"measurement": "logD", "setting": "[5]", "result": 1.6},
      {"measurement": "half-life", "setting": "[6]", "result": 0.0183, "unit": "h"},
      {"measurement": "half-life", "setting": "[7]", "result": "> 1", "unit": "h"},
      {"measurement": "half-life", "setting": "[3]", "result": "> 1", "unit": "h"}
    ]},
    {"smiles": "COc1ccc(OP(=O)(O)C(O)(c2cccc(Br)c2)P(=O)(O)Oc2ccc(OC)cc2)cc1", "note": "(stereo not drawn)", "values": [
      {"measurement": "logP", "setting": "[8]", "result": -0.31}
    ]},
    {"smiles": "CC(=O)OC(C)(P(=O)(OCOC(=O)C(C)(C)C)OCOC(=O)C(C)(C)C)P(=O)(OCOC(=O)C(C)(C)C)OCOC(=O)C(C)(C)C", "values": [
      {"measurement": "logD", "setting": "[9]", "result": 7.4}
    ]},
    {"smiles": "CC(=O)OC(C)(P(=O)(O)OCOC(=O)C(C)(C)C)P(=O)(OCOC(=O)C(C)(C)C)OCOC(=O)C(C)(C)C", "note": "(stereo not drawn)", "values": [
      {"measurement": "half-life", "setting": "[6]", "result": 0.045, "unit": "h"},
      {"measurement": "half-life", "setting": "[7]", "result": 252, "unit": "h"},
      {"measurement": "half-life", "setting": "[3]", "result": 163, "unit": "h"},
      {"measurement": "half-life", "setting": "[10]", "result": 4.8, "unit": "h"},
      {"measurement": "logD", "setting": "[11]", "result": 0.6}
    ]},
    {"smiles": "CC(=O)Oc1ccc(COP(=O)(OCc2ccc(OC(C)=O)cc2)OP(=O)(O)OC[C@H]2O[C@@H](n3cc(C)c(=O)[nH]c3=O)C[C@@H]2N=[N+]=[N-])cc1", "values": [
      {"measurement": "half-life", "setting": "[12]", "result": 17, "unit": "h"},
      {"measurement": "half-life", "setting": "[13]", "result": 2, "unit": "min"}
    ]},
    {"smiles": "CCCCCCCCCCCCCC(=O)OP(=O)(O)OP(=O)(O)OC[C@H]1O[C@@H](n2cc(C)c(=O)[nH]c2=O)C[C@@H]1N=[N+]=[N-]", "values": [
      {"measurement": "half-life", "setting": "[14]", "result": 114, "unit": "h"},
      {"measurement": "half-life", "setting": "[15]", "result": 1.7, "unit": "h"}
    ]},
    {"smiles": "Cc1cn([C@H]2C=C[C@@H](COP(=O)(O)OP(=O)(OCc3ccc(OC(=O)c4ccccc4)cc3)OCc3ccc(OC(=O)c4ccccc4)cc3)O2)c(=O)[nH]c1=O", "values": [
      {"measurement": "EC50", "setting": "[16]", "result": 850, "unit": "nM"},
      {"measurement": "Ratio EC50", "setting": "[17]", "result": 82}
    ]},
    {"smiles": "CCCCCCCC(=O)Oc1ccc(COP(=O)(OCc2ccc(OC(=O)CCCCCCC)cc2)OP(=O)(O)OC[C@@H]2C=C[C@H](n3cc(C)c(=O)[nH]c3=O)O2)cc1", "values": [
      {"measurement": "EC50", "setting": "[16]", "result": 2600, "unit": "nM"},
      {"measurement": "Ratio EC50", "setting": "[17]", "result": 27}
    ]},
    {"smiles": "CC(O)(P(=O)(O)O)P(=O)(O)O", "note": "[ETIDRONIC ACID]", "values": [
      {"measurement": "time to quantitative release", "setting": "[18]", "result": 3300, "unit": "min"}
    ]},
    {"smiles": "Cc1cn([C@H]2C=C[C@@H](CO)O2)c(=O)[nH]c1=O", "note": "[STAVUDINE]", "values": [
      {"measurement": "EC50", "setting": "[16]", "result": 70000, "unit": "nM"}
    ]}
  ]
}
